Data from PMC12292835, “Amylin Receptor 1 Mutagenesis Revealed a Potential Role of Calcitonin Serine 29 in Receptor Interaction” (Biomedicines, 2025).
Where no end group is shown, it is not given here.

What was measured:
[1] = system: calcitonin receptor and amylin receptor 1 with N124A; details: cAMP production, in words; cited from earlier work
Description: The N124 residue of the calcitonin receptor appeared dispensable for amylin receptor 1 activation mediated by calcitonin or amylin. The affinity decreases for receptor ECD by 8-fold and more may be insufficient to produce the potency decrease in the activation of the full-length calcitonin and amylin rec ...

[2] = system: calcitonin receptor N135A; details: cited from earlier work
Experimental: (§1) Several receptor–ligand interaction studies introducing mutagenesis to calcitonin and amylin receptors are also available. Among these previous reports, an extensive receptor–ligand interaction study was reported where alanine-scanning mutagenesis was applied to the upper segment of transmembrane helix 1 (TM1) of the calcitonin receptor and its extension into the receptor ECD [31]. Although the study focused on TM1, some residues of calcitonin receptor ECD were mutated and were tested for peptide ligand interaction. When the N135 residue was mutated to alanine, the ...

[3] = system: calcitonin receptor D101A; details: cAMP production, calcitonin receptor activation, cited from earlier work
Experimental: (§2) Gingell et al. addressed the receptor interaction with human calcitonin and rat amylin by introducing mutations to the peptide-binding pocket of the calcitonin receptor and amylin receptor 1 ECDs. The peptide potency for calcitonin receptor and amylin receptor 1 activation was investigated by measuring cAMP production. Multiple residues located in the peptide-binding pocket were tested for peptide-mediated receptor activation. They reported the mutational effects of D101A and N124A that were used in the current study. Consistent with our binding results, the D101A mutation markedly decr ...

[4] = cited from earlier work
Description: (§3) Due to the inherent nature of the calcitonin receptor as the main component of the functional amylin receptor, a calcitonin peptide is used as an agonist for amylin receptors. […] Accordingly, salmon calcitonin is well-characterized as a dual agonist for calcitonin and amylin receptors and is commonly used for research targeting amylin receptors.

[5] = system: pancreatic β-cells; details: in words; cited from earlier work
Description: as §3

[6] = system: human calcitonin and amylin receptors; details: in words; cited from earlier work
Description: as §3

[7] = system: amylin receptor 1 with D101A; details: cAMP production, amylin receptor 1 activation; cited from earlier work
Experimental: as §2

[8] = system: calcitonin receptor N135A, cAMP production; details: cited from earlier work
Experimental: as §1

[9] = system: calcitonin receptor N135A, phosphorylation of extracellular signal-regulated kinase (ERK); details: cited from earlier work
Experimental: as §1

[10] = target: T1, wild-type amylin receptor 1 ECD (Homo sapiens, UniProt O60894+P30988); test: Competition binding assay with non-labeled sCT(22–32), WT; details: competition with 10 nM FITC-sCT(22–32), receptor ECD 81 nM, 1 hour, anisotropy
T1 construct: pHLsec/hRAMP1.24–111-(GSA)3-hCTR.34–141-H6 (H-pSL005); H6 (hexahistidine) (C); made in house; host or cells: HEK293 (transient transfection, secreted, N-glycosylated)
Experimental: (§4) The overall procedure of the FP binding assay with a saturation binding format was previously described. A total of 10 nM FITC-labeled sCT(22–32) and 10 nM FITC-labeled AC413(6–25) with Y25P mutation were used for the receptor–ligand binding assay. For the saturation binding format, the non-linear regression curves were generated by using user-defined equations that were previously described for affinity calculation. FITC-labeled peptide probes were incubated for 1 h at room temperature with the purified receptor protein prior to fluorescence signal measurement. A BioTek Synergy H1 microplate reader (Agilent, Santa Clara, CA, USA) was used to evaluate fluorescence polarization/anisotropy. […] When total fluorescence intensity of the FITC-labeled probes was altered with receptor binding by more than 10% from the starting fluorescence value, the anisotropy was adjusted to reflect the fluorescence change as previously described. […] PRISM 5.0 was fully functional, with the user-defined equations used predicting KD values from fluorescence polarization/anisotropy. […]
(§5) The mixture of the competitive peptide with varying concentrations, 10 nM FITC -sCT(22 –32), and the receptor ECD protein with the concentration described earlier was incubated for 1 hour. The anisotropy signal was measured by using a BioTek Synergy H1 microplate reader (Agilent, Santa Clara, CA, USA). […]

[11] = target: T2, amylin receptor 1 ECD with the E123D mutation (Homo sapiens, UniProt O60894+P30988, E123D); test: Competition binding assay with non-labeled sCT(22–32), E123D; details: competition with 10 nM FITC-sCT(22–32), receptor ECD E123D 53 nM, 1 hour, anisotropy
T2 construct: pHLsec/hRAMP1.24–111-(GSA)3-hCTR.34–141.E123D-H6 (D-pJJ001); H6 (hexahistidine) (C); made in house; host or cells: HEK293 (transient transfection, secreted, N-glycosylated)
Experimental: as §4, §5

[12] = target: T3, amylin receptor 1 ECD with the E123A mutation (Homo sapiens, UniProt O60894+P30988, E123A); test: Competition binding assay with non-labeled sCT(22–32), E123A; details: competition with 10 nM FITC-sCT(22–32), receptor ECD E123A 365 nM, 1 hour, anisotropy
T3 construct: pHLsec/hRAMP1.24–111-(GSA)3-hCTR.34–141.E123A-H6 (D-pJJ004); H6 (hexahistidine) (C); made in house; host or cells: HEK293 (transient transfection, secreted, N-glycosylated)
Experimental: as §4, §5

[13] = system: amylin receptors; details: mutated human amylin, cell-based system; cited from earlier work
Description: Receptor–ligand interaction studies with alanine-scanning mutagenesis have been reported for amylin receptors. Lee et al. first introduced alanine-scanning mutagenesis to calcitonin and AC413 peptides and examined the role of each amino acid in the interaction with amylin receptor 1 ECD [20]. They reported critical amino acids of peptide ligands for amylin receptor 1 ECD binding. Their results were supported by the following structural studies with the calcitonin receptor ECD and salmon calcitonin fragments. Recently, Lee S introduced alanine-scanning mutagenesis to a rat amylin ...

T3 sequence (O60894 24-111): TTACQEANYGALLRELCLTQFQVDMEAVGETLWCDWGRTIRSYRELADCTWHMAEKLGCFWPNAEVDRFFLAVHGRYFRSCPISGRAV
T3 sequence (P30988 34-141 E123A): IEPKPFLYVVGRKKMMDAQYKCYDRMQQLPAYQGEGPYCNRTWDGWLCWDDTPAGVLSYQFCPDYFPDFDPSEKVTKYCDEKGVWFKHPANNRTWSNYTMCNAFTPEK
T1 sequence (O60894 24-111): as the sequence (O60894 24-111) above
T1 sequence (P30988 34-141): as the sequence (P30988 34-141 E123A) above, with A90E counted along it
T2 sequence (O60894 24-111): as the sequence (O60894 24-111) above
T2 sequence (P30988 34-141 E123D): as the sequence (P30988 34-141 E123A) above, with A90D counted along it

In the case of human calcitonin: peptide hormone, the “effect of N124A on potency” value [1] is given as “did not significantly change the potency”, the “effect of N135A on binding” value [2] is given as “abolished the binding” and the decrease of potency ([3]; D101A) is given as 17 fold.
In the case of “human amylin: peptide hormone secreted from pancreatic β-cells, 37 amino acids (KCNTATCATQRLANFLVHSSNNFGAILSSTNVGSNTY; not fully specified (C-terminus, bridges); cysteine pairing not given here; UniProt P10997 34-70, looked up)”, the aggregation ([4]; human amylin) is given as “reported to form aggregates” and the “effect of aggregates on pancreatic β-cells” value [5] is given as “harm pancreatic β-cells”.
For salmon calcitonin, the “binding and receptor activation potency” value [6] is given as “strong receptor activation potency”.
In the case of rat amylin: rodent (rat/mouse) amylin, the aggregation propensity ([4]; rodent (rat/mouse) amylin versus human amylin) is listed as “less propensity for forming aggregates than human amylin”, the “effect of N124A on potency” value [1] is listed as “did not significantly change the potency” and the decrease of potency [7] is listed as 68 fold. For the same substance, the “effect of D101A on potency” value ([3]; in words) was “not significantly altered”.
In the case of calcitonin, the “decrease of functional affinity (pKA)” value [8] is given as “less than 10 fold” and the “decrease of functional affinity (pKA)” value [9] is given as “less than 10 fold”.
In the case of “porcine calcitonin: peptide hormone (CSNLSTCVLSAYWRNLNNFHRFSGMGFGPETP; ends and bridges not checked; cysteine pairing not given here; UniProt P01259 1-32, looked up)”, the “effect of N135A on binding” value [2] is listed as “abolished the binding”.
Work on “YPRTNTGSGTP-NH2 [non-labeled sCT(22–32)]” yielded a Ki [10] of 891 nM, a Ki [11] of 1230 nM and a Ki [12] of 2510 nM.
In the case of “A5S: human amylin with mutation A5S (KCNTSTCATQRLANFLVHSSNNFGAILSSTNVGSNTY; ends and bridges not checked; cysteine pairing not given here; UniProt P10997 34-70, looked up, variant A5S)”, the “amylin receptor activation potency” value [13] is listed as “significantly increased the amylin receptor activation potency”.
In the case of “V17A: human amylin with mutation V17A (KCNTATCATQRLANFLAHSSNNFGAILSSTNVGSNTY; ends and bridges not checked; cysteine pairing not given here; UniProt P10997 34-70, looked up, variant V17A)”, the “amylin receptor activation potency” value [13] is listed as “significantly increased the amylin receptor activation potency”.
In the case of “Q10A: human amylin with mutation Q10A (KCNTATCATARLANFLVHSSNNFGAILSSTNVGSNTY; ends and bridges not checked; cysteine pairing not given here; UniProt P10997 34-70, looked up, variant Q10A)”, the “amylin receptor activation potency” value [13] is given as “significantly increased the amylin receptor activation potency”.
